Results as given in patent US11827624B2, “Covalent immune recruiter compounds for immune cell recognition and associated uses” (McMaster University, priority 2020, dated 2023).

Test system: PSMA coated beads
Experiment: Flow cytometry ADCP assay, PSMA coated beads and U937 monocytes
Assay type: cell-based, human
Details: 400 nM CIR 3, 200 nM anti-DNP IgG, 10% FBS+RPMI
Protocol: 24 hours prior to inducing phagocytosis, 6 million U937 monocytes were seeded at 500,000 cells/mL and activated with IFN-γ ([…]). These cells were then counted and washed twice with serum free assay media (neat RPMI). Cells were then suspended to a concentration of 1 million cells/mL and stained with 1.9 μM Vybrant™ DiD Cell-Labelling Solution for 30 minutes (37° C., 5% CO2). Cells were then washed 3× with warm assay media (AM, 10% Ultra Low IgG FBS in RPMI) and resuspended to a concentration of 1.5 million cells/mL for use.
5.6 million YG strep beads were washed 3× with PBS and resuspended in 150 μL of a saturating concentration of biotinylated-PSMA solution. This was allowed to incubate at 4° C. for 1 hour and then washed 3× with serum free AM. The beads were resuspended with AM to a concentration of 15 million beads/mL for use.
All stocks were made in AM. The initial anti-DNP antibody stock solution was made (320 μL of 200 nM). 75 μL of this was removed and 0.4 μL of PMPA solution was added (250 mM in DMSO). […] Beads were detected in the PE-Cy7 channel, monocytes were detected in the APC Cy7 channel, PSMA loading was confirmed with the Alexa 647 channel. […] ADCP was determined by plotting monocyte stain against bead stain, and was quantified as % Target Phagocytosis=(Double Positive Events)/PSMA Bead Target Events+Double Positive Events×100. […]

Compound: O=C(O)CC[C@H](NC(=O)N[C@@H](CCCCNC(=O)NCCOCCOCCOCCOCCOCCOCCOCCOC(=O)n1cnc(CCNC(=O)CNc2ccc([N+](=O)[O-])cc2[N+](=O)[O-])c1)C(=O)O)C(=O)O [CIR 3]
- ADCP of PSMA coated beads: could selectively affect ADCP of PSMA coated target beads via covalent recruitment of anti-DNP, in a time dependent manner
